Experimental data taken from US11642413B2, “Compounds for degrading Tau protein aggregates and uses thereof” (Aprinoia Therapeutics Limited, priority 2019, dated 2023).

Target: Tau aggregates in P301L-Tau-FL-GFP HEK293 cells (Homo sapiens (Human), UniProt P10636, P301L)
Assay: Tau degradation assay (APNmAb005 ELISA-based Tau aggregation assay)
Type: cell-based
Conditions: 1 μM compound
Procedure: (A). Cell-based model of Tau inclusion formation: Six month old rTg4510 mouse brain lysates were used as the source of tau seeds, prepared as described in Example 26 above. P301L-Tau-FL-GFP HEK293 cells represent HEK293 cells express full-length human tau T40 (2N4R) carrying the P301L mutation with a GFP tag (P301L-Tau-FL-GFP). 1×10^6 of P301L-Tau-FL-GFP HEK293 cells were cultured on a 6-well plate in culture medium containing DMEM/F-12 (Gibco) supplemented with 10% fetal bovine serum (FBS) (Gibco), 1% Penicillin-Streptomycin (Gibco) and 0.5 mg/ml geneticin (Thermo Fisher Scientific) for 24 hours to reach 70-90% confluency, indicating the cells were ready for transfection. 50 μg of 6-month-old rTg4510 mouse brain lysate was diluted in 400 μL of serum free medium and mixed with 16 μL of lipofectamine 3000 reagent (Thermo Fisher Scientific) diluted in 400 μl of serum free medium. A solution mixture of rTg4510 brain lysate and lipofectamine 3000 was incubated at room temperature for 25 mins. The culture media were removed, and then a solution mixture of rTg4510 lysate and lipofectamine 3000 was added to the cells for transfection. The solution mixture was incubated at room temperature for five hours, followed by medium change to 10% fetal bovine serum (FBS). […]

Tau aggregates in P301L-Tau-FL-GFP HEK293 cells, sequence (P10636 other isoform, or with tags, fused parts or gaps P301L): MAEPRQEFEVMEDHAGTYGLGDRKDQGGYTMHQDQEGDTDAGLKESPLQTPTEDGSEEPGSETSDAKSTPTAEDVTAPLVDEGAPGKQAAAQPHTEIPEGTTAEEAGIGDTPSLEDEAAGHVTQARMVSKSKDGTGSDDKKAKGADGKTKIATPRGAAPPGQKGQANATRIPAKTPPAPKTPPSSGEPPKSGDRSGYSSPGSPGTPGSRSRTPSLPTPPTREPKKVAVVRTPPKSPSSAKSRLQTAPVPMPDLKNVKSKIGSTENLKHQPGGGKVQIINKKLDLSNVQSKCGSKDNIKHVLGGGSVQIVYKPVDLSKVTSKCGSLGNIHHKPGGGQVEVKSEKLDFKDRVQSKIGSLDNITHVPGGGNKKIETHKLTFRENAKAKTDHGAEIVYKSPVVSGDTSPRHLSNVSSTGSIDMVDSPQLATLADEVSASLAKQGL

Optical Density (O.D.) 450 value decrease compared to vehicle: 20%
Compound: CN(C)c1ccc(-c2ccc(-c3cn4cccc(OCCOCCOc5ccc6c(c5)CN(C5CCC(=O)NC5=O)C6=O)c4n3)cc2)cn1 (stereo not shown) [Compound 162842]
